Reference: PubChem BioAssay AID2060605 (Molecular Pharmacology Branch, DTP, NCI, 2025)

System: 947758-054-R-J2-PDC spheroid growth, percent test/control
Experiment: Anticancer human tumor 947758-054-R-J2-PDC patient-derived colon adenocarcinoma cell line growth inhibition [CLK]
Conditions: spheroids with HUVEC and MSC; for IC50: curve of first compound; for viability, T/C: stronger effect = lower value
Summary of the method: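 Patient-derived tumor cells grown as complex spheroids with HUVEC endothelial cells and mesenchymal stem cells, treated with drug combinations. Concentrations descend in half-log steps from near clinical Cmax, or from 10 microM if Cmax unknown.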
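Also: spheroids exposed to compounds for one week before readout.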
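For viability, T/C in this document: 100% = DMSO vehicle control wells.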

`C=C(F)C(=O)N1CCN(c2nc(OCC3CCCN3C)nc3c2CCN(c2cccc4cccc(Cl)c24)C3)CC1CC#N` (configuration not stated) + CN1CCN(c2cc(C(=O)Nc3cc4cc(-c5cnn(C)c5)ccc4cn3)ccn2)CC1 gave an IC50 (second compound 0.0316 µM) of 6.61 µM, an IC50 (second compound 0.1 µM) of 7.05 µM and an IC50 (second compound 0.316 µM) of less than 0.0316 µM. The IC50 (second compound 1 µM) was less than 0.0316 µM, the IC50 (second compound 3.16 µM) was less than 0.0316 µM and the IC50 (second compound 10 µM) was less than 0.0316 µM. The viability, T/C (second compound 0.0316 µM, first compound 0.0316 µM) was 122%, the viability, T/C (second compound 0.0316 µM, first compound 0.1 µM) was 116% and the viability, T/C (second compound 0.0316 µM, first compound 0.316 µM) was 109%. It also gave a viability, T/C (second compound 0.0316 µM, first compound 1 µM) of 107%, a viability, T/C (second compound 0.0316 µM, first compound 3.16 µM) of 146% and a viability, T/C (second compound 0.0316 µM, first compound 10 µM) of 10.6%. The viability, T/C (second compound 0.1 µM, first compound 0.0316 µM) was 149%, the viability, T/C (second compound 0.1 µM, first compound 0.1 µM) was 201% and the viability, T/C (second compound 0.1 µM, first compound 0.316 µM) was 181%. It also gave a viability, T/C (second compound 0.1 µM, first compound 1 µM) of 220%, a viability, T/C (second compound 0.1 µM, first compound 3.16 µM) of 154% and a viability, T/C (second compound 0.1 µM, first compound 10 µM) of 4.69%. For the same compound, the viability, T/C (second compound 0.316 µM, first compound 0.0316 µM) was 4.5%, the viability, T/C (second compound 0.316 µM, first compound 0.1 µM) was 5.53% and the viability, T/C (second compound 0.316 µM, first compound 0.316 µM) was 5.34%. For the same compound, the viability, T/C (second compound 0.316 µM, first compound 1 µM) was 6.82%, the viability, T/C (second compound 0.316 µM, first compound 3.16 µM) was 8.16% and the viability, T/C (second compound 0.316 µM, first compound 10 µM) was 1.5%. It also gave a viability, T/C (second compound 1 µM, first compound 0.0316 µM) of 0.18%, a viability, T/C (second compound 1 µM, first compound 0.1 µM) of 1.06% and a viability, T/C (second compound 1 µM, first compound 0.316 µM) of 0.17%. The viability, T/C (second compound 1 µM, first compound 1 µM) was 2.25%, the viability, T/C (second compound 1 µM, first compound 3.16 µM) was 0.12% and the viability, T/C (second compound 1 µM, first compound 10 µM) was 0.96%. For the same compound, the viability, T/C (second compound 3.16 µM, first compound 0.0316 µM) was 1.29%, the viability, T/C (second compound 3.16 µM, first compound 0.1 µM) was 0.25% and the viability, T/C (second compound 3.16 µM, first compound 0.316 µM) was 0.21%. The viability, T/C (second compound 3.16 µM, first compound 1 µM) was 0.24%, the viability, T/C (second compound 3.16 µM, first compound 3.16 µM) was 0.14% and the viability, T/C (second compound 3.16 µM, first compound 10 µM) was 0.12%. The viability, T/C (second compound 10 µM, first compound 0.0316 µM) was 1.57%, the viability, T/C (second compound 10 µM, first compound 0.1 µM) was 1.69% and the viability, T/C (second compound 10 µM, first compound 0.316 µM) was 0.29%. It also gave a viability, T/C (second compound 10 µM, first compound 1 µM) of 0.31%, a viability, T/C (second compound 10 µM, first compound 3.16 µM) of 1.29% and a viability, T/C (second compound 10 µM, first compound 10 µM) of 1.41%.
